Experimental data reported in PMC12583704 (Signal Transduction and Targeted Therapy, 2025).
pIC50: −log10 of the molar value. Like-named read-outs stand apart in the source and are kept apart here.

Assays:
Ku812 = tested on: Ku812; parameters: method as in HQP1351 SJ0003 Protocol; settings: ref HQP1351 SJ0003 Protocol; cited from earlier work
K562 = tested on: K562; parameters: method as in HQP1351 SJ0003 Protocol; settings: ref HQP1351 SJ0003 Protocol; cited from earlier work
[1] = parameters: method as in HQP1351 SJ0003 Protocol; settings: ref HQP1351 SJ0003 Protocol; cited from earlier work
CYP3A4 = tested on: CYP3A4; parameters: method as in HQP1351 SJ0003 Protocol; settings: ref HQP1351 SJ0003 Protocol, cited from earlier work
CYP3A4 and CYP2C9 = tested on: CYP3A4 and CYP2C9; parameters: method as in HQP1351 SJ0003 Protocol; settings: ref HQP1351 SJ0003 Protocol; cited from earlier work
Sup-B15 = tested on: Sup-B15; parameters: method as in HQP1351 SJ0003 Protocol; settings: ref HQP1351 SJ0003 Protocol; cited from earlier work
[2] = tested on: p-c-KIT, p-AKT and p-ERK1/2; parameters: method as in HQP1351 SJ0003 Protocol; settings: GIST T1, GIST882 and GIST 430 cells; ref HQP1351 SJ0003 Protocol; cited from earlier work
hERG potassium channels = tested on: hERG potassium channels; parameters: method as in HQP1351 SJ0003 Protocol; settings: ref HQP1351 SJ0003 Protocol; cited from earlier work
CYP2C19 = tested on: CYP2C19; parameters: method as in HQP1351 SJ0003 Protocol; settings: 0 - 50 μM; ref HQP1351 SJ0003 Protocol; cited from earlier work
FGFR2 = FGFR2 (Homo sapiens, UniProt P21802); assay: In vitro biochemical kinase assay; settings: kinase activity
[3] = SJ-0003 interim safety analysis
Procedure: Given once every other day, […]
efficacy as primary or secondary endpoints. The data cutoff date for SJ -0002, CC201, and […]
Data were obtained from 36 GIST […]
cohorts (20 mg QOD, 30 mg QOD, 40 mg QOD, and 50 mg QOD), and the safety analysis was based on a combination of the 4 dose groups. […]

GIST 48 tumors = tested on: GIST 48 tumors; parameters: method as in HQP1351 SJ0003 Protocol; settings: ref HQP1351 SJ0003 Protocol, cited from earlier work; for concentration in tumor tissues: 4 hours after the last dose
CYP2D6 = tested on: CYP2D6; parameters: method as in HQP1351 SJ0003 Protocol; settings: 0 - 50 μM; ref HQP1351 SJ0003 Protocol; cited from earlier work
[4] = cited from earlier work
[5] = tested on: wild-type and drug-resistant mutant Bcr-Abl; settings: ref HQP1351 SJ0003 Protocol; cited from earlier work
CYP2C9 = tested on: CYP2C9; parameters: method as in HQP1351 SJ0003 Protocol; settings: 0 - 50 μM; ref HQP1351 SJ0003 Protocol; cited from earlier work
non-SDH-deficient GISTs = assay: Phase 1 study: antitumor efficacy per RECIST v1.1 in non-SDH-deficient GIST; assay type: in vivo, human
Procedure: AEs were evaluated at each follow-up visit: on Days 1, 8, 15, and 22 during Cycles 1 and 2; and on Days 1 and 15 in Cycle 3 and all subsequent cycles, up to 30 days after the final dose. All AEs were graded according to the National Cancer Institute Common Terminology Criteria for Adverse Events v4.03. Clinical laboratory investigations for routine blood examinations and serum chemistry parameters were performed during every cycle (on Day 1), during Cycles 1 and 2 (on Days 8, 15, and 22), and 30 days after the last dose of treatment. Urinalysis, coagulation, cardiac troponin I/T, lipase, amylase, and electrocardiographic evaluations were conducted at baseline; during Cycles 1 and 2 (on Days 1 and 15); during Cycles 3, 5, 7, and 9; every three cycles after Cycle 9 (on Day 1); and 14 days after the last dose of treatment. All patients underwent tumor imaging for response assessment via computed tomography or magnetic resonance imaging at screening and every two cycles (8 weeks) until progression or discontinuation. Target and nontarget lesions were assessed per the Response Evaluation Criteria in Solid Tumors version 1.1 (RECIST v1.1). […]
Antitumor activity was evaluated in patients from the GIST population (including those with SDH-deficient and non-SDH-deficient disease) who had undergone at least one postbaseline disease assessment. […]

[6] = 65 CML patients, 1-60 mg, single oral administration, fed, ref HQP1351 SJ0003 Protocol
[7] = SJ-0002 CML patient study, ref HQP1351 SJ0003 Protocol

Sequence of FGFR2 (P21802 22-821): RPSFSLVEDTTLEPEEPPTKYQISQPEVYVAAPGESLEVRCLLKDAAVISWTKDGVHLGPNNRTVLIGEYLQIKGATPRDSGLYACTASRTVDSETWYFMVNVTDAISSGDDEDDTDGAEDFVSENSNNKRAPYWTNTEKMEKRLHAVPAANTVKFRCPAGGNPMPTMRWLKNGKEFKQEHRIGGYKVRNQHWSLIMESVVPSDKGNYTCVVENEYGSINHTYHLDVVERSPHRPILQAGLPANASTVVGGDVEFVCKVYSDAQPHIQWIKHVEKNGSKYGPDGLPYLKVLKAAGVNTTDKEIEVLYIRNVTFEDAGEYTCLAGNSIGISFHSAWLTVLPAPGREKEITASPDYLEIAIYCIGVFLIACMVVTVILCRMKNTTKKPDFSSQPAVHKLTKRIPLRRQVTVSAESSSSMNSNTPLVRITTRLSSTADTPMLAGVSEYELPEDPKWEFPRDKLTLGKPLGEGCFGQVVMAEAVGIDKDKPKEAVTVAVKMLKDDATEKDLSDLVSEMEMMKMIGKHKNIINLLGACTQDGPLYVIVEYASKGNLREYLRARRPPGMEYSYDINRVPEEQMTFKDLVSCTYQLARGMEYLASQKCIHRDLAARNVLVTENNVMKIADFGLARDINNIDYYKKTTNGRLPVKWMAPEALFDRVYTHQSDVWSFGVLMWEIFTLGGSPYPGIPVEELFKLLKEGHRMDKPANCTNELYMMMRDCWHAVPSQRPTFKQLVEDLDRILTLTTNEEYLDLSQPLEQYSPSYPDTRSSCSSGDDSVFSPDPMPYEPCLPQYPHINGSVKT

Cc1ccc(C(=O)Nc2ccc(CN3CCN(C)CC3)c(C(F)(F)F)c2)cc1C#Cc1cnc2[nH]ncc2c1 [Olverembatinib, 3-[(1H-pyrazolo[3,4-b]pyridin-5-yl)ethynyl]-4-methyl-N-{4-[(4-methylpiperazin-1-yl)methyl]-3-(trifluoromethyl)phenyl]benzamide]
pIC50 (Ku812): 9.89 | pIC50 (K562): 9.70 | unchanged drug oxidized NADPH-dependently [1]: Less than 20% | induction of mRNA expression of CYP3A4 (CYP3A4; 0.3 and 3 μM): potential to induce mRNA expression | induction of mRNA expression of CYP3A4 (CYP3A4; 0.563 and 5.63 μM): potential to induce mRNA expression | major metabolic enzymes that catalyze the oxidative metabolism (CYP3A4 and CYP2C9): CYP3A4 and CYP2C9 | pIC50 (Sup-B15): 8.60 | phosphorylation levels of p-c-KIT, p-AKT and p-ERK1/2 [2]: significantly inhibited | inhibitory activity on hERG potassium channels (hERG potassium channels): no inhibitory activity | inhibitory effect on CYP2C19 (CYP2C19): certain inhibitory effect | pIC50 (FGFR2): > 9.22 | subjects who experienced fatal AEs ([3]; 36 GIST subjects, assessed as unlikely related to the drug): 11% | TEAE: Abdominal pain ([3]; human, in vivo): 22.2% | TEAE: Alanine aminotransferase increased ([3]; human, in vivo): 25.0% | TEAE: Anemia ([3]; human, in vivo): 41.7% | TEAE: Aspartate aminotransferase increased ([3]; human, in vivo): 33.3% | TEAE: C-reactive protein increased ([3]; human, in vivo): 22.2% | TEAE: Constipation ([3]; human, in vivo): 44.4% | TEAE: Hyperuricemia ([3]; human, in vivo): 33.3% | TEAE: Neutrophil count increased ([3]; human, in vivo): 52.8% | TEAE: asthma ([3]; human, in vivo): 38.9% | TEAE: hypoproteinemia ([3]; human, in vivo): 27.8% | TEAE: serum creatinine increased ([3]; human, in vivo): 25.0% | TEAE: white blood cell count increased ([3]; human, in vivo): 63.9% | subjects who discontinued treatment due to AEs ([3]; human, in vivo): 5 (14%) n (%) | subjects with at least one TEAE ([3]; human, in vivo): 100% | subjects with at least one serious adverse event (SAE) ([3]; human, in vivo): 28% | concentration in tumor tissues (GIST 48 tumors; 20 mg/kg): 1,379 ng/ml | 4 h plasma concentration (GIST 48 tumors; 20 mg/kg): 122 ng/mL | concentration in tumor tissues (GIST 48 tumors; 40 mg/kg): 864 ng/mL | 4 h plasma concentration (GIST 48 tumors; 40 mg/kg): 112 ng/mL | concentration in tumor tissues (GIST 48 tumors; 60 mg/kg): 1,774 ng/ml | 4 h plasma concentration (GIST 48 tumors; 60 mg/kg): 203 ng/mL | inhibitory effect on CYP2D6 (CYP2D6): no significant inhibitory effect | mean T1/2 [4, 6]: 17.5 to 36.5 h | median Tmax [4, 6]: 4 to 8 h | MTD [4, 7]: 50 mg | dose group from which the drug has shown its efficacy [4, 7]: 12 mg | half-life [4]: ~ 20 h | day on which steady state was reached ([4]; once every other day, ref HQP1351 SJ0003 Protocol): 7 days | increase of AUC and Cmax with dose ([4]; single dose 1-60 mg, multiple doses 1-50 mg, ref HQP1351 SJ0003 Protocol): approximately dose | binding [5]: efficiently bind | inhibitory effect on CYP2C9 (CYP2C9): certain inhibitory effect | response (non-SDH-deficient GISTs; 25 evaluable patients): no response was observed | median PFS (non-SDH-deficient GISTs; patients with non-SDH-deficient GISTs, Kaplan-Meier): 2.9 (1.7–5.2) months
